From US7034024B1, “Product inhibiting transduction of G heterotrimeric protein signals combined with another anti-cancer agent for therapeutic use in cancer treatment” (Societe de Conseils de Recherches et d'Applications …, priority 1999, dated 2006)

System: Mia-Paca2 cells (human pancreatic cancer cells)
Experiment: Measurement of cell proliferation in vitro (WST1 colorimetric test, polyhema-coated plates)
Type: cell-based
Set-up: Observed values (living cells): scale not given here
Conditions: for Compound B1 alone (observed value of living cells) / Compound B5 alone (observed value of living cells): 0 μM = 100; for Compound B4 alone (observed value of living cells) / Compound B2 alone (observed value of living cells) / Compound B3 alone (observed value of living cells): 0 nM = 100
Experimental: The cell line Mia-Paca2 (human pancreatic cancer cells) was acquired from the American Tissue Culture Collection (Rockville, Md., USA).
The Mia-Paca2 cells (1500 cells/wells) are cultured in 96-well plates pre-coated with polyhema (Sigma) which allows only the growth of cells presenting a tumorigenic phenotype.
On day 0, these cells are seeded in 90 μl of Dulbecco's modified Eagle medium (Gibco-Brl, Cergy-Pontoise, France) completed with 10% of foetal calf serum inactivated by heating (Gibco-Brl, Cergy-Pontoise, France), 50000 units/l of penicillin and 50 mg/l streptomycin (Gibco-Brl, Cergy-Pontoise, France), and 2 mM of glutamin (Gibco-Brl, Cergy-Pontoise, France).
The cells were treated with increasing concentrations of two products alone or combined in a matrix, i.e.: on day 1, with the first product for 96 hours and on day 2 with the second product for 72 hours. According to method α, the transduction inhibitor of heterotrimeric G protein signals with which the anti-cancer agent is combined is administered before the latter, then according to method β, it is done so after.
At the end of this period, quantification of cell proliferation is evaluated by a colorimetric test based on the cleavage of the tetrazolium salt WST1 by mitochondrial dehydrogenases in the living cells leading to the formation of formazan (Boehringer Mannheim, Meylan, France). These tests are carried out in duplicate with 4 measurements for each single product and for each combination tested. This allows the number of living cells at the end of each treatment to be determined, i.e. the observed value. The calculated value of the living cells for each treatment corresponds to the multiplication of the observed values of the effects of separate products. These observed and calculated values are compared for each combination. When the observed value of living cells is lower than the calculated value of the living cells, a synergy is considered to exist. When the observed value is equal to the calculated value, a additive effect is considered to exist. When the observed value is greater than the calculated value, an antagonism is considered to exist.

1-(2-(1-((4-cyano)phenylmethyl)imidazol-4-yl)-1-oxoethyl-2,5-dihydro-4-(2-methoxyphenyl)imidazo[1,2c][1,4]benzodiazepine [compound B1]
Compound B1 alone (observed value of living cells) (B1 0.04 μM alone, Table I): 94 ± 2.3 | Compound B1 alone (observed value of living cells) (B1 0.2 μM alone, Table I): 80 ± 4.2 | Compound B1 alone (observed value of living cells) (B1 1 μM alone, Table I): 68 ± 2.3

4-(2-bromophenyl)-1-(2-(1-((4-cyano-3-methoxy)phenylmethyl)-imidazo-5-yl)-1-oxoethyl)-1,2-dihydro-8-fluoro-imidazo[1,2a][1,4]-benzodiazepine [compound B5]
Compound B5 alone (observed value of living cells) (B5 0.2 μM alone, Table V): 86 ± 0.9 | Compound B5 alone (observed value of living cells) (B5 1 μM alone, Table V): 63 ± 2.6

Cn1cncc1C(N)(c1ccc(Cl)cc1)c1ccc2c(c1)c(-c1cccc(Cl)c1)cc(=O)n2C (racemic) [compound B4, (±)-4-(3-chlorophenyl)-6-[(4-chlorophenyl)-amino-(1-methyl-1H-imidazol-5-yl)methyl]-1-methyl-2(1H)quinolinone, reference compound]
Compound B4 alone (observed value of living cells) (B4 40 nM alone, Table IV): 104 ± 2.0 | Compound B4 alone (observed value of living cells) (B4 0.2 μM alone, Table IV): 90 ± 9.0 | Compound B4 alone (observed value of living cells) (B4 1 μM alone, Table IV): 72 ± 3

Cc1ccccc1-c1cn2c(n1)C(CC1CCCCC1)N(C(=O)C(N)CS)CC2 (stereo not shown) [compound A1, 7-(2-amino-1-oxo-3-thiopropyl)-8-(cyclohexylmethyl)-2-(2-methylphenyl)-5,6,7,8-tetrahydroimidazo[1,2a]pyrazine]
Observed values (living cells) (A1 20 μM alone (B1 0 μM), method α, n = 4, Table I): 51 ± 8.9 | Observed values (living cells) (A1 20 μM alone (B2 0 nM), method α, n = 3, Table II): 49 ± 7.7 | Observed values (living cells) (A1 20 μM alone (B3 0 nM), method α, n = 3, Table III): 65 ± 7.3

NC(CS)C(=O)N1CCn2cc(-c3ccccc3)nc2C1CC1CCCCC1 (stereo not shown) [compound A2, 7-(2-amino-1-oxo-3-thiopropyl)-8-(cyclohexylmethyl)-2-phenyl-5,6,7,8-tetrahydroimidazo[1,2a]pyrazine]
Observed values (living cells) (A2 20 μM alone (B4 0 nM), method β, n = 2, Table IV): 42 ± 11.0 | Observed values (living cells) (A2 20 μM alone (B5 0 μM), method β, n = 3, Table V): 44 ± 6.4

CC(=O)O[C@H]1C(=O)[C@@]2(C)[C@H]([C@H](OC(=O)c3ccccc3)[C@]3(O)C[C@H](OC(=O)[C@H](O)[C@@H](NC(=O)c4ccccc4)c4ccccc4)C(C)=C1C3(C)C)[C@]1(OC(C)=O)CO[C@@H]1C[C@@H]2O [compound B2, taxol, reference compound]
Compound B2 alone (observed value of living cells) (B2 0.8 nM alone, Table II): 100 ± 5.8 | Compound B2 alone (observed value of living cells) (B2 4 nM alone, Table II): 100 ± 0.3 | Compound B2 alone (observed value of living cells) (B2 20 nM alone, Table II): 60 ± 10.6

Nc1ccn([C@@H]2O[C@H](CO)[C@@H](O)C2(F)F)c(=O)n1 [compound B3, gemcitabine, reference compound]
Compound B3 alone (observed value of living cells) (B3 4 nM alone, Table III): 95 ± 9.8 | Compound B3 alone (observed value of living cells) (B3 20 nM alone, Table III): 72 ± 11.5 | Compound B3 alone (observed value of living cells) (B3 100 nM alone, Table III): 62 ± 1.9
